For orientation: IC50 means the concentration at which inhibition is half-maximal.

The assay concerns the target T1, recombinant human GST-Syk (Homo sapiens, UniProt P43405).
T1 construct: purchased Carna Biosciences 08-176
The assay is described as follows: Homogeneous Time-Resolved Fluorescence (HTRF) assay for the recombinant human Syk enzyme. It is filed as biochemical. As to conditions: recombinant human GST-Syk 5 pM, ATP 25 μM, 10-dose titration 10 μM to 0.508 nM; read-out: rhSYK Activity IC50. The gist of the method: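 GST-hSyk fusion protein phosphorylated a peptide for 45 min at room temperature. The reaction was quenched with 2 nM Eu-anti-phosphotyrosine antibody and 70 nM SA-APC in 15 mM Tris pH 7.5, 40 mM EDTA, 0.01% Tween 20. The HTRF signal was read after 30 min.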
Background: TR-FRET usually uses a lanthanide donor and a delayed reading to cut background.
As for `Cc1cc(Nc2cc(C(F)(F)F)ccn2)nc(-c2cn(C(C)C(=O)NCc3cc(-c4ccco4)on3)nn2)c1` (stereo not drawn) [Example 1.37, N-[(5-furan-2-ylisoxazol-3-yl)methyl]-2-[4-(4-methyl-6-{[4-(trifluoromethyl)pyridin-2-yl]amino}pyridin-2-yl)-1H-1,2,3-triazol-1-yl]propanamide], the IC50 was found to be 33.9 nM.

As to `Cc1cc(Nc2cc(C(F)(F)F)ccn2)nc(-c2cn(CC3(O)CCCCC3O)nn2)c1` (stereo not drawn) [Example 10.10, 1-{[4-(4-methyl-6-{[4-(trifluoromethyl)pyridin-2-yl]amino}pyridin-2-yl)-1H-1,2,3-triazol-1-yl]methyl}cyclohexane-1,2-diol], the IC50 was 19.6 nM.

In the case of `Cc1cc(Nc2cc(C(F)(F)F)ccn2)nc(-c2cn(CC(C)(O)CO)nn2)c1` (stereo not drawn) [Example 10.14, 2-methyl-3-[4-(4-methyl-6-{[4-(trifluoromethyl)pyridin-2-yl]amino}pyridin-2-yl)-1H-1,2,3-triazol-1-yl]propane-1,2-diol], the 50% inhibitory concentration (IC50) came out at 9.1 nM.

For `CC(O)(CO)Cn1cc(-c2cccc(Nc3nccc(C(F)(F)F)n3)c2)nn1` (single isomer, unassigned) [Example 21.6, 2-methyl-3-[4-(3-{[4-(trifluoromethyl)pyrimidin-2-yl]amino}phenyl)-1H-1,2,3-triazol-1-yl]propane-1,2-diol], the IC50 was 44.6 nM.

As for `Cc1cc(Nc2cc(C(F)(F)F)ccn2)nc(-c2cn(CC3(O)CCOC3)nn2)c1` (single isomer, unassigned) [Example 5.11, 3-{[4-(4-methyl-6-{[4-(trifluoromethyl)pyridin-2-yl]amino}pyridin-2-yl)-1H-1,2,3-triazol-1-yl]methyl}tetrahydrofuran-3-ol], the half-inhibitory concentration (IC50) was found to be 21.8 nM.

As to `Cc1cc(Nc2nccc(C)n2)cc(-c2cn(C[C@](C)(O)CO)nn2)c1` (single isomer, unassigned) [Example 21.2, 2-methyl-3-(4-(3-methyl-5-((4-methylpyrimidin-2-yl)amino)phenyl)-1H-1,2,3-triazol-1-yl)propane-1,2-diol], the IC50 is 2 nM.

Consider `Cc1cc(Nc2nccc(C(F)F)n2)cc(-c2cn(CC3OC(=O)NC3C)nn2)c1` (single isomer, unassigned) [Example 7.6, 5-((4-(3-((4-(difluoromethyl)pyrimidin-2-yl)amino)-5-methylphenyl)-1H-1,2,3-triazol-1-yl)methyl)-4-methyloxazolidin-2-one], for which the 50% inhibitory concentration (IC50) turned out to be 10.2 nM.

As for `Cc1cc(Nc2nccc(C(F)(F)F)n2)cc(-c2cn(CC(C)(O)CO)nn2)c1` (single isomer, unassigned) [Example 21.4, 2-methyl-3-[4-(3-methyl-5-{[4-(trifluoromethyl)pyrimidin-2-yl]amino}phenyl)-1H-1,2,3-triazol-1-yl]propane-1,2-diol], the IC50 turned out to be 10.3 nM.

Consider `Cc1cc(Nc2nccc(C(F)(F)F)n2)cc(-c2nc[nH]n2)c1` [Example 2.14, N-[3-methyl-5-(1H-1,2,4-triazol-3-yl)phenyl]-4-(trifluoromethyl)pyrimidin-2-amine], for which the IC50 was 281 nM.

Consider `Cc1cc(Nc2cc(C(F)F)ccn2)nc(-c2cn(C(C)C(C)(O)CO)nn2)c1` (single isomer, unassigned) [Example 30.5, 3-[4-(6-{[4-(difluoromethyl)pyridin-2-yl]amino}-4-methylpyridin-2-yl)-1H-1,2,3-triazol-1-yl]-2-methylbutane-1,2-diol], for which the IC50 came to 2.7 nM.

As to `Cc1cc(Nc2cc(C(F)(F)F)ccn2)nc(-c2cn(CC3CCCCO3)nn2)c1` (racemic) [Example 5.4, 4-methyl-6-[1-(tetrahydro-2H-pyran-2-ylmethyl)-1H-1,2,3-triazol-4-yl]-N-[4-(trifluoromethyl)pyridin-2-yl]pyridin-2-amine], the IC50 is 63.5 nM.

With `Cc1cc(Nc2nccc(C(F)(F)F)n2)cc(-c2cn(CC(=O)NC(C)(C)C)nn2)c1` [Example 5.70, N-tert-butyl-2-[4-(3-methyl-5-{[4-(trifluoromethyl)pyrimidin-2-yl]amino}phenyl)-1H-1,2,3-triazol-1-yl]acetamide], the IC50 is 183 nM.
